Reference: patent US12606568B2, “SMARCA degraders and uses thereof” (Kymera Therapeutics, Inc., priority 2020, dated 2026)

Tests used:
Format in all cases: cell-based
SMARCA4 = biological target: T1, SMARCA4 (Homo sapiens, UniProt P51532); assay: SMARCA4 Western blot MV4-11 degradation; conditions: for SMARCA4 MSD MV411 degradation 24 h: average Dmax % / DC50: MV4-11 cells; for DC50 / Dmax: 24 h; for DC50: read-out: SMARCA4 MSD MV411 degradation 24 h: Mean external-Abs DC50; for Dmax: MV4-11, MV4-11 cells, read-out: SMARCA4 MSD MV411 degradation 24 h: average Dmax %
T1 construct: SMARCA2 and SMARCA4 protein degradation in MV4-11 cells; endogenous in cells; host or cells: MV4-11
Procedure: Example 54. SMARCA2 and SMARCA 4 Western Blot MV4-11 Degradation
Cells were seeded into 6-well plates (MV4-11: 4×10^6 cells/well/1 ml) and 1 ml of 2× compound solution was added into the well to make the final concentration and the plates were mixed well and incubated for 24 hours (No cytotoxicity was observed). The cell were collected with media and spun at 3000 rpm for 5 minutes. The supernatant was aspirated and the well and the cells were washed with cold PBS once and combined for centrifugation again; the supernatant aspirated again. 200 ul pre-chilled RIPA lysis buffer (Boston BioProducts BP-115D) with protease/phosphatase inhibitor (Roche 05892791001/Roche 04906837001) was directly added into the tube to lyze the cells for 20 minutes on ice. The cell lysate were collected into EP tubes and spun at 13000 rpm for 20 minutes and 72 ul supernatant was transferred to a fresh EP tube containing 18 ul of 5× loading buffer (Beyotime Bio P0015) to make the loading samples. The samples were heated to 100° C. for 10 minutes and cooled to RT and microcentrifuged. 20 ul of samples were loaded onto SDS-PAGE gel (Novex, WG1402BOX) and the gel was run at 80 V for 20 minutes and 120 V for 1.5 hours. The samples were electrotransfer to a NC membrane using wet-transfer method with 250 mA for 2.5 hours. The membrane was blocked with LICOR blocking buffer (LI-COR, 927-50000) for 1 hour. The membrane was washed three times with TBST (CST #9997S), 5 minutes each. Incubation was performed with primary antibody prepared in blocking buffer with 0.1% Tween-20 (Solarbio, P8220) at 4° C. overnight (Anti-SMARCA2/BRM antibody (ab15597) 1:500; Anti-BRG1 antibody [EPR3912] (ab108318) 1:1000; Rabbit anti-Baf180 antibody [EPR15860] (Abcam, ab196022) 1:1000; mouse anti-beta-Actin (8H10D10) (CST #3700) 1:10000). The membrane was washed three times with TBST, 5 minutes each. Incubation with secondary antibody was performed for 1 hour at RT (anti-rabbit IgG (Licor, 926-32211) 1:5000; anti-mouse IgG (LI-COR, 926-68070) 1:5000). The membrane was washed three times with TBST, 5 minutes each and lastly the LiCOR was read.
(§1) The letter codes for SMARCA degradation potency (DC50) include: A (<100 nM), B (100-500 nM), C (501-1000 nM), and D (>1000 nM). The letter codes for the percentage of SMARCA degradation after 24 hours (Dmax %) include: A (>90% degradation), B (>70-90% degradation), C (50-70% degradation), and D (<50% degradation).

SMARCA2 [1] = biological target: T2, SMARCA2 (Homo sapiens, UniProt P51531); assay: MSD SMARCA2 degradation in A549 cell line; parameters: endogenous in cells; conditions: for SMARCA2 MSD A549 degradation 24 h: Average Dmax % / DC50: A549 cells; for DC50 / Dmax: 24 h; for DC50: read-out: SMARCA2 MSD A549 degradation 24 h: Average external-Abs DC50; for Dmax: A549, A549 cells
Procedure: Example 53. MSD SMARCA2 Degradation in A549 Cell Line
Cells were seeded into 96-well plates (A549 cells: 2×10^4 cells/well/100 ul media) abd incubated overnight. The next day, 200 nl compound were added into the intermediate plate with Echo (Labcyte 550) from source plate containing a 3-fold serial dilution from top concentration of 1 mM. The culture medium was changed with 80 ul of fresh medium and 80 ul of 2× compound solution was added into the well to make a final concentration of 1000 nM, 333.3 nM, 111.1 nM, 37.04 nM, 12.35 nM, 4.115 nM, 1.372 nM, 0.457 nM, 0.152 nM and 0 nM (DMSO). The wells were mixed and then incubated for 24 hours. The media was aspirated from the cultures and 60 ul pre-chilled PIPA lysis buffer (Boston BioProducts BP-115D) with protease/phosphatase inhibitor (Roche 05892791001/Roche 04906837001) was added into the well to lyze the cells for 20 minutes at 4° C. The MSD plate (L15XA) was coated with 40 ul cell lysate and incubated at 4° C. overnight. The next day, the plate was washed three times with TBST (CST #9997S), 150 ul/well. The MSD plates was blocked with 150 ul blocking buffer per well and shaked for 1 hr at R^†, 600 rpm. The blocking buffer was 3% Blocker A (MSD, R93BA-4) in TBST. The MSD plate was washed three times with 150 ul/well of TBST and 25 ul/well of detection antibody (Rabbit anti-SMARCA2/BRM antibody, 100 μg/ml, ab223735) was added at final concentration of 1 ug/mi diluted in 1% o Blocking buffer and shaken for 1 hour at R^†, 600 rpm. The MSD plate was washed three times with 150 ul/well of TBST and 25 ul/well of SULFO-TAG anti-rabbit antibody (MSD, R32AB-1) was added at final concentration of 1 μg/ml diluted in […] Blocking buffer and shaken for 1 hour at R^†, 600 rpm. The MSD plate was washed three times with 150 ul/well of TBST and 150 ul/well of 2×MSD reading buffer diluted from 4× (MSD, R92TC-2) with water was added. Lastly, the MSD instrument was read.
as §1, with “SMARCA2” for “SMARCA”, “% o)” for “%)”, “(>90% o” for “(>90%”, “(>70-90% o” for “(>70-90%”, “(50-70% o” for “(50-70%”

SMARCA2 [2] = biological target: T2, SMARCA2; assay: SMARCA2 Western blot MV4-11 degradation; parameters: SMARCA2 and SMARCA4 protein degradation in MV4-11 cells; endogenous in cells; host or cells: MV4-11; conditions: for SMARCA2 MSD MV411 degradation 24 h: average Dmax % / DC50: MV4-11 cells; for DC50 / Dmax: 24 h; for DC50: read-out: SMARCA2 MSD MV411 degradation 24 h: Mean external-Abs DC50; for Dmax: MV4-11, MV4-11 cells, read-out: SMARCA2 MSD MV411 degradation 24 h: average Dmax %

T2 sequence (P51531 whole entry): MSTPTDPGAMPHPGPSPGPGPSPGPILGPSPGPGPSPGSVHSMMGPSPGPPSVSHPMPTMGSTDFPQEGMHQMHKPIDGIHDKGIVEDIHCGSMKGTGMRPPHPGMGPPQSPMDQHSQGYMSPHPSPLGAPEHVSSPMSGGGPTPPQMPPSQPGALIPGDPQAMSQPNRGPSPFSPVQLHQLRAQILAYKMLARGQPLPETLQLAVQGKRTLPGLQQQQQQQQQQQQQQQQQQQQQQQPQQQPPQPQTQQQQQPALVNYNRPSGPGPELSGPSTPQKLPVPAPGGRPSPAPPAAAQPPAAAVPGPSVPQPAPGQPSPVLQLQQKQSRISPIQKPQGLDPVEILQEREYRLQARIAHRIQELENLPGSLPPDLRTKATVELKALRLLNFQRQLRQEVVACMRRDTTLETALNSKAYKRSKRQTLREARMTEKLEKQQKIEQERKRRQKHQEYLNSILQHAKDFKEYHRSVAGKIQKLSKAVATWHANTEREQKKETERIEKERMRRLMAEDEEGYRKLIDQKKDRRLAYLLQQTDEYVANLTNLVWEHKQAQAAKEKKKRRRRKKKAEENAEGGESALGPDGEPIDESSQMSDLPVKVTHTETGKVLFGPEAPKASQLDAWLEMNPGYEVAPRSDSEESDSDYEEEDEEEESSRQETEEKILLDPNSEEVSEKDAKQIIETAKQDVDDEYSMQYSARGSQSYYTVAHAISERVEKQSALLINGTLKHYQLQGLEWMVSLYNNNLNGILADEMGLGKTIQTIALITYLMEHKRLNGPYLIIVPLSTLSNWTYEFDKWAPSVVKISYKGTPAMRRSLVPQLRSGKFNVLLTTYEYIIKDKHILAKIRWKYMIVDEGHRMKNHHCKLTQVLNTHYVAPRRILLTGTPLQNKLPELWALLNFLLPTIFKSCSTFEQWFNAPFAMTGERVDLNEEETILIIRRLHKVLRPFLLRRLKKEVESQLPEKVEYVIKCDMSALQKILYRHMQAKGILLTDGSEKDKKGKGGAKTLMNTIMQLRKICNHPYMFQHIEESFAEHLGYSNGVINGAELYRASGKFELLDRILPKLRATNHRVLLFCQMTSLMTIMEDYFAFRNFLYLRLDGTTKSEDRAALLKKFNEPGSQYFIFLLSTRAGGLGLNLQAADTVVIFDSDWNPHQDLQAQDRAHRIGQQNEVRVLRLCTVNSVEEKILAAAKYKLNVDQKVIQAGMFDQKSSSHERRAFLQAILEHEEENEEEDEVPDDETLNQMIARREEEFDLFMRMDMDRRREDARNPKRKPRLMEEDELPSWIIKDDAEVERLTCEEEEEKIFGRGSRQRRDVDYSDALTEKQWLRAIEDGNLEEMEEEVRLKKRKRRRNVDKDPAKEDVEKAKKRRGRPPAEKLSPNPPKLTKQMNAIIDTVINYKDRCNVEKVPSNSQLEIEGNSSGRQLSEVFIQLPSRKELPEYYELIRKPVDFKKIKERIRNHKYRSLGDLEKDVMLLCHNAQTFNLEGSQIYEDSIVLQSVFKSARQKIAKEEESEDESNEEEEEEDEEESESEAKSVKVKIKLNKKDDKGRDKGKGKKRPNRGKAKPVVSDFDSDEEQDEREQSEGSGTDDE
T1 sequence (P51532 whole entry): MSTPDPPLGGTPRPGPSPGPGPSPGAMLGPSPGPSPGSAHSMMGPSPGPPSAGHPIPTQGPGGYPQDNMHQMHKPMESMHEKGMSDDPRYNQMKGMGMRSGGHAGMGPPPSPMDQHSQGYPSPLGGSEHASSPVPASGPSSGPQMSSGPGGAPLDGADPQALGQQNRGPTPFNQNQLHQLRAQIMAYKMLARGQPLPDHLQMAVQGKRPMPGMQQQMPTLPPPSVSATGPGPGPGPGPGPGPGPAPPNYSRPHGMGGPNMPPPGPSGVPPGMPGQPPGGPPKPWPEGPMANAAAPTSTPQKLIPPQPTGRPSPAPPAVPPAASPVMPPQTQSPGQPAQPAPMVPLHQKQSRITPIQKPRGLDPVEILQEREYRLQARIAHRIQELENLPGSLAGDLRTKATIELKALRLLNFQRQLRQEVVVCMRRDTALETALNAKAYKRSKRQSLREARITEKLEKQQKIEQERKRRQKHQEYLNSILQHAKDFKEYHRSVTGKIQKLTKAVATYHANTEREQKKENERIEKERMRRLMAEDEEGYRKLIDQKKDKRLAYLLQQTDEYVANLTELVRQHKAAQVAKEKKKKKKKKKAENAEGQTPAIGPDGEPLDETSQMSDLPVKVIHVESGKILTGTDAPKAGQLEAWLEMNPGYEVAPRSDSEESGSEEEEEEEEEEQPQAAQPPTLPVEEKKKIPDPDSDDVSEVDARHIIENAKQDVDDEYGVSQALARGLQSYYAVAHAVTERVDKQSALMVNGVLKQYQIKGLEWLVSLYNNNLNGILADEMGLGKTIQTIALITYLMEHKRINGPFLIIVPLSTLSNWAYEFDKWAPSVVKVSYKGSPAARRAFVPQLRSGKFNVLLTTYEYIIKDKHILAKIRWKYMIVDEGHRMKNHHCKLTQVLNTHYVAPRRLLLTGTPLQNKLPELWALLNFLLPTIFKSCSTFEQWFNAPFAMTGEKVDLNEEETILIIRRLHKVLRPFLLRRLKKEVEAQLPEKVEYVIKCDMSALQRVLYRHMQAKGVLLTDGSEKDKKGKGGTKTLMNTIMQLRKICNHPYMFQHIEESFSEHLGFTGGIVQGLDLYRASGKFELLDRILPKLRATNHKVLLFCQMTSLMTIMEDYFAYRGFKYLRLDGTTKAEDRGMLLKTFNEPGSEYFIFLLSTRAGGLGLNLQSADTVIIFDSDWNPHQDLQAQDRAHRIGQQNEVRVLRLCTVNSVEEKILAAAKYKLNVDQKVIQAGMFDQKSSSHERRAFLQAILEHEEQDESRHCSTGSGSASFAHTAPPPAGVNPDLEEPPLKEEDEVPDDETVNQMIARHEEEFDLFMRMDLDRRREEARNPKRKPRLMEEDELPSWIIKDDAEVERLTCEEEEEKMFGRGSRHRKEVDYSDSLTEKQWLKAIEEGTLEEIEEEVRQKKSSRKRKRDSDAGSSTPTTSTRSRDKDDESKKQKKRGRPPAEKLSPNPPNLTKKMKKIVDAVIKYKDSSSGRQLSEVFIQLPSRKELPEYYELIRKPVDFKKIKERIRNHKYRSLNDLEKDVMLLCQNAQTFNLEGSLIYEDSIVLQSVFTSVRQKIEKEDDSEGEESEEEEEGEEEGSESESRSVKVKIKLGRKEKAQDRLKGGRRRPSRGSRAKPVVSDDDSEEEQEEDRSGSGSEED

| Compound | SMARCA4 MSD MV411 degradation 24 h: average Dmax % (SMARCA4) | DC50 (SMARCA4) | SMARCA2 MSD A549 degradation 24 h: Average Dmax % (SMARCA2 [1]) | DC50 (SMARCA2 [1]) | SMARCA2 MSD MV411 degradation 24 h: average Dmax % (SMARCA2 [2]) | DC50 (SMARCA2 [2]) | Dmax (SMARCA4) | Dmax (SMARCA2 [1]) | Dmax (SMARCA2 [2]) |
| --- | --- | --- | --- | --- | --- | --- | --- | --- | --- |
| Cc1ncsc1-c1ccc([C@H](C)NC(=O)[C@@H]2C[C@@H](O)CN2C(=O)[C@@H](NC(=O)[C@H]2CC3(C2)C[C@H](N2CCC(c4ccc(N5C6CCC5CN(c5cc(-c7ccccc7O)nnc5N)C6)cc4)CC2)C3)C(C)(C)C)cn1 (single isomer, unassigned) [I-6] | A (A (>90% degradation)) | > 1000 nM | B (B (>70-90% o degradation)) | > 1000 nM | C (C (50-70% degradation)) | 501 to 1000 nM |  |  |  |
| Cc1ncsc1-c1ccc(CNC(=O)[C@@H]2C[C@@H](O)CN2C(=O)[C@@H](NC(=O)[C@H]2CC3(C2)C[C@H](N2CCN(c4cnc(N5C6CCC5CN(c5cc(-c7ccccc7O)nnc5N)C6)nc4)CC2)C3)C(C)(C)C)cc1 (single isomer, unassigned) [I-8] |  | > 1000 nM |  | < 100 nM |  | < 100 nM | < 50% | 70 to 90% | 70 to 90% |
| Cc1ncsc1-c1ccc(CNC(=O)[C@@H]2C[C@@H](O)CN2C(=O)[C@@H](NC(=O)[C@H]2CC3(C2)C[C@H](N2CCN(c4cnc(N5C6CCC5CN(c5cc(-c7ccccc7O)nnc5N)C6)nc4)CC2)C3)C(C)(C)C)cc1 (single isomer, unassigned) [I-9] | D (D (<50% degradation)) | > 1000 nM | B (B (>70-90% o degradation)) | 100 to 500 nM | B (B (>70-90% degradation)) | < 100 nM |  |  |  |
| Cc1ncsc1-c1ccc([C@H](C)NC(=O)[C@@H]2C[C@@H](O)CN2C(=O)[C@@H](NC(=O)[C@H]2CCC3(CC2)C[C@H](N2CCC(c4cnc(N5C6CCC5CN(c5cc(-c7ccccc7O)nnc5N)C6)nc4)CC2)C3)C(C)(C)C)cc1 (stereo in doubt) [I-15, (2S,4S)-1-((2S)-2-(2-(4-(2-(3-(3-amino-6-(2-hydroxyphenyl)pyridazin-4-yl)-3,8-diazabicyclo[3.2.1]octan-8-yl)pyrimidin-5-yl)piperidin-1-yl)spiro[3.5]nonane-7-carboxamido)-3,3-dimethylbutanoyl)-4-hydroxy-N—((S)-1-(4-(4-methylthiazol-5-yl)phenyl)ethyl)pyrrolidine-2-carboxamide] |  | > 1000 nM |  | 100 to 500 nM |  | < 100 nM | 50 to 70% | > 90% | > 90% |
| Cc1ncsc1-c1ccc(CNC(=O)[C@@H]2C[C@@H](O)CN2C(=O)[C@@H](NC(=O)C2CC3(C2)CN(C2CCC(c4cnc(N5C6CCC5CN(c5cc(-c7ccccc7O)nnc5N)C6)nc4)CC2)C3)C(C)(C)C)cc1 (stereo partly drawn) [I-7, 2-(4-(2-(3-(3-amino-6-(2-hydroxyphenyl)pyridazin-4-yl)-3,8-diazabicyclo[3.2.1]octan-8-yl)pyrimidin-5-yl)cyclohexyl)-N—((S)-1-((2S,4R)-4-hydroxy-2-((4-(4-methylthiazol-5-yl)benzyl)carbamoyl)pyrrolidin-1-yl)-3,3-dimethyl-1-oxobutan-2-yl)-2-azaspiro[3.3]heptane-6-carboxamide] |  | > 1000 nM |  | 501 to 1000 nM |  | < 100 nM | < 50% | 70 to 90% | 70 to 90% |
| Cc1ncsc1-c1ccc(CNC(=O)[C@@H]2C[C@@H](O)CN2C(=O)[C@@H](NC(=O)C2CC3(C2)CN(C2CCN(c4cnc(N5C6CCC5CN(c5cc(-c7ccccc7O)nnc5N)C6)nc4)CC2)C3)C(C)(C)C)cc1 [I-10, 2-(1-(2-(3-(3-amino-6-(2-hydroxyphenyl)pyridazin-4-yl)-3,8-diazabicyclo[3.2.1]octan-8-yl)pyrimidin-5-yl)piperidin-4-yl)-N—((S)-1-((2S,4R)-4-hydroxy-2-((4-(4-methylthiazol-5-yl)benzyl)carbamoyl)pyrrolidin-1-yl)-3,3-dimethyl-1-oxobutan-2-yl)-2-azaspiro[3.3]heptane-6-carboxamide] |  | > 1000 nM |  | 501 to 1000 nM |  | < 100 nM | < 50% | 70 to 90% | 70 to 90% |
| Cc1ncsc1-c1ccc(CNC(=O)[C@@H]2C[C@@H](O)CN2C(=O)[C@@H](NC(=O)[C@H]2CC3(C2)C[C@H](N2CC4(CN(c5cnc(N6C7CCC6CN(c6cc(-c8ccccc8O)nnc6N)C7)nc5)C4)C2)C3)C(C)(C)C)cc1 (stereo partly drawn) [I-11, (2S,4R)-1-((2S)-2-(6-(6-(2-(3-(3-amino-6-(2-hydroxyphenyl)pyridazin-4-yl)-3,8-diazabicyclo[3.2.1]octan-8-yl)pyrimidin-5-yl)-2,6-diazaspiro[3.3]heptan-2-yl)spiro[3.3]heptane-2-carboxamido)-3,3-dimethylbutanoyl)-4-hydroxy-N-(4-(4-methylthiazol-5-yl)benzyl)pyrrolidine-2-carboxamide] |  | > 1000 nM |  | 100 to 500 nM |  | < 100 nM | < 50% | 70 to 90% | 70 to 90% |
| Cc1ncsc1-c1ccc(CNC(=O)[C@@H]2C[C@@H](O)CN2C(=O)[C@@H](NC(=O)[C@H]2CC3(C2)C[C@H](N2CC4(CN(c5cnc(N6C7CCC6CN(c6cc(-c8ccccc8O)nnc6N)C7)nc5)C4)C2)C3)C(C)(C)C)cc1 (stereo partly drawn) [I-12, (2S,4R)-1-((2S)-2-(6-(6-(2-(3-(3-amino-6-(2-hydroxyphenyl)pyridazin-4-yl)-3,8-diazabicyclo[3.2.1]octan-8-yl)pyrimidin-5-yl)-2,6-diazaspiro[3.3]heptan-2-yl)spiro[3.3]heptane-2-carboxamido)-3,3-dimethylbutanoyl)-4-hydroxy-N-(4-(4-methylthiazol-5-yl)benzyl)pyrrolidine-2-carboxamide] |  | > 1000 nM |  | 100 to 500 nM |  | < 100 nM |  |  |  |
